This is an account of results in patent US20260130919A1 (priority 2023, published 2026).

For series [1], the system named is peripheral T-cell lymphoma (PTCL). The series is described as follows: Randomized Phase 2 dose finding study of Pralatrexate-COP versus CHOP. The arrangement: species or system human. Conditions: in vivo, iv.
Description: This experiment was performed to identify the suitable dose of Pralatrexate that would be optimal in polychemotherapy for the next study (phase-III) based on safety and ORR (objective response rate) at 3 months. Initially, a lower dose of 20 mg/m^2 was compared to 30 mg/m^2 combined with COP. Therefore, these two dose levels were assigned randomly to 20 patients in addition to COP (Pralatrexate-COP). […] Dose effect on polyglutamate-Pralatrexate, DNA hypomethylation or H3-acetylation was evaluated in this part of the study as a surrogate for PD (pharmacodynamics) drug exposure. […] Further objective of dose finding study was also to evaluate the safety profiles for patients with newly diagnosed PTCL treated with Pralatrexate-COP compared to CHOP alone.
In the dose finding study, each investigational arm was having two dose levels which was compared with CHOP as reference. Treatment was randomized in three arms, Group 1a (Pralatrexate-COP) Pralatrexate 20 mg/m^2, Group 1b Pralatrexate 30 mg/m^2, all added to standard CHOP or COP respectively, and Group 2 for CHOP alone. […]
For series [2] the following is noted: cumulative dose of doxorubicin >200 mg/m^2, CHOP regimen, aggressive Non-Hodgkin Lymphoma patients; cited from earlier work.
For series [3], the system named is PTCL. Conditions: anthracycline-based regimens; cited from earlier work.

Each structure is given as a SMILES string.

Take `C#CCC(Cc1cnc2nc(N)nc(N)c2n1)c1ccc(C(=O)N[C@@H](CCC(=O)O)C(=O)O)cc1` (mixture of isomers) [Pralatrexate]: in series [1], the “effect in combination with COP” value was “synergistic effect”.
Turning to `COc1cccc2c1C(=O)c1c(O)c3c(c(O)c1C2=O)C[C@@](O)(C(=O)CO)C[C@@H]3O[C@H]1C[C@H](N)[C@H](O)[C@H](C)O1` [Doxorubicin], the “patients with cardiac events” value in series [2] is 27%. For the same molecule, the “survival impact of inclusion in a polychemotherapy regimen” value in series [3] was “not associated with a survival improvement”.
